This is an account of results in patent publication US10662203B2, “Pyrido[2,3-b]indole compounds for the treatment and prophylaxis of bacterial infection” (Hoffmann-La Roche Inc., priority 2017, dated 2020).

Converted amounts (≈) assume the structure as drawn.

The subject of data set [1] is A. baumannii (ATCC17978). Kind of data set: 50% growth inhibitory concentration (IC50) determination assay. In kind it is cell-based. The conditions noted are these: Acinetobacter baumannii, ATCC17978, A. baumannii ATCC17978; Iso-Sensitest broth; 0.098 = detection limit. In short, it runs like this: (§1)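 Read-out is optical density at λ=600 nm, taken every 20 minutes across a 16 h time course. Bacteria at ~5×10^5 CFU/mL in Iso-Sensitest broth are exposed to two-fold dilutions of compound (50 to 0.097 μM final) at 35±2° C.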

The nature of data set [2]: Lyophilisation solubility assay (LYSA). In kind it is physicochemical. The conditions noted are these: phosphate buffer, pH 6.5, aqueous buffer, thermodynamic from solid, 0.05 M phosphate buffer, HPLC-UV. The gist of the method:
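Duplicate samples made from 10 mM DMSO stock. DMSO evaporated and the residue taken up in 0.05 M phosphate buffer, pH 6.5, stirred 1 h and shaken 2 h, then left overnight. Filtrate and its 1/10 dilution quantified by HPLC-UV.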

Data set [3] is described as follows: Cytotoxicity assay (HepG2, CellTiter-Blue cell viability). It is filed as cell-based. The conditions noted are these: human; HepG2 cells, 3 days treatment; "*": the detection limit; read-out: CC50. As for the experimental part: The cytotoxicity of compounds of present invention was assessed by HepG2 assay. HepG2 cells (ATCC HB-8065™) were seeded into 96-well plates (1.2×10^4 cells per well) and treated with compounds for 3 days, cell viability was measured at day 3 post compound treatment using the CellTiter-Blue® Cell Viability Assay (Promega, Cat. No. G8082). 20 μL of Cell titer blue buffer were added to each well of the cells, which were incubated for 3 hours at 37° C., and the fluorescence value was measured by a plate reader (Molecular Device SpectraMax M2). The CC50 value of each compound is plotted with GraphPad Prism using four parameter logistic equation.

The subject of data set [4] is K. pneumoniae (ATCC10031). Put plainly: 50% growth inhibitory concentration (IC50) determination assay. It is filed as cell-based. The conditions noted are these: Klebsiella pneumoniae, Iso-Sensitest broth, 0.098 = detection limit. In short, it runs like this:
as §1

The test system of data set [5] is S. aureus (ATCC29213). The description is as above. In kind it is cell-based. The conditions noted are these: Staphylococcus aureus, Iso-Sensitest broth, 0.098 = detection limit. In short, it runs like this: as §1

Broadly, the IC50 is the concentration at which inhibition is half-maximal. The term thermodynamic solubility denotes solubility found after equilibrating the solid with the medium. One may read the CC50 as the concentration that lowers cell viability or growth by half. For the compound `CNc1cc(F)c(F)c2c1[nH]c1ncc(-c3cnc4c(c3)c(=O)c(C(=O)O)cn4NCCOC)c(N3CC[C@H]4CN(C)C[C@H]43)c12` (relative stereo) [Example 5.01, 6-[4-[cis-5-methyl-2,3,3a,4,6,6a-hexahydropyrrolo[2,3-c]pyrrol-1-yl]-5,6-difluoro-8-(methylamino)-9H-pyrido[2,3-b]indol-3-yl]-1-(2-methoxyethylamino)-4-oxo-1,8-naphthyridine-3-carboxylic acid], in data set [1], half-maximal inhibition (IC50) was put at 0.19 µM. This compound returned a thermodynamic solubility in data set [2] of 425 µg/mL (≈ 687 µM). Moreover, the CC50 at 3 days in data set [3] turned out to be 43500 nM.

`CNc1cc(F)c(F)c2c1[nH]c1ncc(-c3cnc4c(c3)c(=O)c(C(=O)O)cn4C)c(N3CCCC3CN(C)C)c12` (stereo not shown) [Example 1.12]: the results for the IC50 in data set [4], in data set [5] and in data set [1] were under 0.098 µM, 0.11 µM and 0.294 µM, respectively. The compound also came in with a solubility (thermodynamic) in data set [2] of 321 µg/mL (≈ 572 µM). For the same compound, in data set [3], the 50% cytotoxic concentration (CC50) at 3 days came out at 39200 nM.

Take `CNc1cc(F)c(F)c2c1[nH]c1ncc(-c3cnc4c(c3)c(=O)c(C(=O)O)cn4CC(C)(C)N)c(N3CCOCC3)c12` [Example 1.38]: the IC50 in data set [4] is under 0.098 µM; in data set [5], 0.181 µM; in data set [1], 0.883 µM. Besides, in data set [2], the solubility (thermodynamic) was 15 µg/mL (≈ 26 µM). Also, the half-maximal cytotoxic concentration (CC50) at 3 days in data set [3] is over 100000 nM.

In the case of `CNc1cc(F)c(F)c2c1[nH]c1ncc(-c3cnc4c(c3)c(=O)c(C(=O)O)cn4C)c(N3CCOC(CN(C)C)C3)c12` (stereo not shown) [Example 1.61], the concentration for half-maximal inhibition (IC50) in data set [4] was under 0.098 µM; in data set [5], 0.139 µM; in data set [1], 0.817 µM. The compound further showed a thermodynamic solubility in data set [2] of 600 µg/mL (≈ 1040 µM). For the same compound, the CC50 at 3 days in data set [3] is over 100000 nM.

In the case of `CNc1cc(F)cc2c1[nH]c1ncc(-c3cnc4c(c3)c(=O)c(C(=O)O)cn4N3CCOCC3)c(N3CCOCC3)c12` [Example 1.71], the 50% inhibitory concentration (IC50) in data set [4] was under 0.098 µM; in data set [5] it was under 0.098 µM; in data set [1] it was 0.923 µM. Moreover, the thermodynamic solubility in data set [2] came to 11 µg/mL (≈ 19.2 µM). Further, in data set [3], the 50% cytotoxic concentration (CC50) at 3 days was over 100000 nM.

In the case of `CNc1cc(F)cc2c1[nH]c1ncc(-c3cnc4c(c3)c(=O)c(C(=O)O)cn4C)c(N3CCC(N(C)C)C3)c12` (stereo not shown) [Example 1.75], the values for the concentration for half-maximal inhibition (IC50) in data set [4], in data set [5] and in data set [1] were under 0.098 µM, 0.108 µM and 0.108 µM, respectively. This compound also gave a solubility (thermodynamic) in data set [2] of 152 µg/mL (≈ 287 µM). Moreover, the cytotoxic concentration (CC50) at 3 days in data set [3] came out at 68500 nM.

Turning to `CNc1c(F)c(F)cc2c1[nH]c1ncc(-c3cnc4c(c3)c(=O)c(C(=O)O)cn4C)c(N3CCOC(CN(C)C)C3)c12` (stereo not shown) [Example 1.78], the IC50 in data set [4] was under 0.098 µM; in data set [5], 0.343 µM; in data set [1], 0.326 µM. The compound further showed a solubility (thermodynamic) in data set [2] of 530 µg/mL (≈ 918 µM). For the same compound, the CC50 at 3 days in data set [3] came to 42500 nM.

With `CNc1cc(F)cc2c1[nH]c1ncc(-c3cnc4c(c3)c(=O)c(C(=O)O)cn4C)c(N3CCOCC(CN(C)C)C3)c12` (stereo not shown) [Example 1.90], the figures for the IC50 in data set [4], in data set [5] and in data set [1] were under 0.098 µM, 0.216 µM and 0.411 µM, respectively. The compound further gave a thermodynamic solubility in data set [2] of 700 µg/mL (≈ 1220 µM). Moreover, in data set [3], the 50% cytotoxic concentration (CC50) at 3 days was over 100000 nM.

For `CNc1cc(F)cc2c1[nH]c1ncc(-c3cnc4c(c3)c(=O)c(C(=O)O)cn4C)c(N3CCCC(CN(C)C)C3)c12` (stereo not shown) [Example 1.94], the figures for the IC50 in data set [4], in data set [5] and in data set [1] were under 0.098 µM, under 0.098 µM and 0.155 µM, respectively. In data set [2], the thermodynamic solubility came out at 301 µg/mL (≈ 540 µM). The CC50 at 3 days in data set [3] was 38700 nM.

With `CCNc1cc(F)c(F)c2c1[nH]c1ncc(-c3cnc4c(c3)c(=O)c(C(=O)O)cn4C)c(N3CCC(CN(C)C)C3)c12` (stereo not shown) [Example 1.106], the IC50 is under 0.098 µM in data set [4], under 0.098 µM in data set [5] and 0.244 µM in data set [1]. Moreover, the thermodynamic solubility in data set [2] was 19 µg/mL (≈ 33 µM). In data set [3], the CC50 at 3 days was found to be 91300 nM.

The compound `CNc1cc(F)c(F)c2c1[nH]c1ncc(-c3cnc4c(c3)c(=O)c(C(=O)O)cn4C)c(N3CCN4CCOCC4C3)c12` (stereo not shown) [Example 1.134] gave a solubility (thermodynamic) in data set [2] of 11 µg/mL (≈ 19.1 µM). Further, in data set [3], the CC50 at 3 days was over 100000 nM.

In the case of `CNc1cc(F)c(F)c2c1[nH]c1ncc(-c3cnc4c(c3)c(=O)c(C(=O)O)cn4C)c(N3CCC(CN(C)C)C3)c12` (stereo not shown) [Example 1.135], the IC50 in data set [4] was under 0.098 µM; in data set [5], under 0.098 µM; in data set [1], 0.153 µM. The compound also displayed a solubility (thermodynamic) in data set [2] of 266 µg/mL (≈ 474 µM). The CC50 at 3 days in data set [3] amounted to 29300 nM.

Take `CNc1cc(Cl)cc2c1[nH]c1ncc(-c3cnc4c(c3)c(=O)c(C(=O)O)cn4C)c(N3CCOC(CN(C)C)C3)c12` (stereo not shown) [Example 1.138]: the values for the IC50 in data set [4], in data set [5] and in data set [1] were under 0.098 µM, under 0.098 µM and 0.302 µM, respectively. Besides, in data set [2], the solubility (thermodynamic) is 91 µg/mL (≈ 158 µM). For the same compound, the CC50 at 3 days in data set [3] stood at 47300 nM.

Regarding `CCN(CC)CC1CN(c2c(-c3cnc4c(c3)c(=O)c(C(=O)O)cn4C)cnc3[nH]c4c(NC)cc(F)c(F)c4c23)CCO1` (stereo not shown) [Example 1.149], the IC50 in data set [4] was under 0.098 µM; in data set [5], under 0.098 µM; in data set [1] it was 0.362 µM. In data set [2], this compound yielded a solubility (thermodynamic) of 530 µg/mL (≈ 875 µM). In addition, the CC50 at 3 days in data set [3] was 66600 nM.

In the case of `[2H]C([2H])([2H])Nc1cc(F)c(F)c2c1[nH]c1ncc(-c3cnc4c(c3)c(=O)c(C(=O)O)cn4C)c(N3CCC[C@H]3CN(C)C)c12` [Example 1.161], the figures for the IC50 in data set [4], in data set [5] and in data set [1] were under 0.098 µM, 0.155 µM and 0.202 µM, respectively. For the same compound, the solubility (thermodynamic) in data set [2] is over 830 µg/mL. In addition, in data set [3], the CC50 at 3 days was over 100000 nM.

Regarding `CNc1cc(F)cc2c1[nH]c1ncc(-c3cnc4c(c3)c(=O)c(C(=O)O)cn4NC)c(N3CC[C@H]4CCN(C)C4C3)c12` (stereo partly shown) [Example 1.212], the IC50 was under 0.098 µM in data set [4], 0.168 µM in data set [5] and 0.18 µM in data set [1]. Also, in data set [3], the CC50 at 3 days was 33900 nM.

In the case of `CNc1cc(F)c(F)c2c1[nH]c1ncc(-c3cnc4c(c3)c(=O)c(C(=O)O)cn4NC)c(N3CC[C@H]4CN(C)C4C3)c12` (stereo partly shown) [Example 1.214], the IC50 is under 0.098 µM in data set [4], under 0.098 µM in data set [5] and 0.111 µM in data set [1]. Also, the CC50 at 3 days in data set [3] amounted to 40800 nM.

For the compound `CNc1cc(F)cc2c1[nH]c1ncc(-c3cnc4c(c3)c(=O)c(C(=O)O)cn4[C@@H](C)CO)c(N3CCOCC3)c12` [Example 1.216], the IC50 in data set [4] was under 0.098 µM; in data set [5] it was under 0.098 µM; in data set [1], 0.424 µM. Further, in data set [3], the CC50 at 3 days is over 100000 nM.

`CNc1cc(F)c(F)c2c1[nH]c1ncc(-c3cnc4c(c3)c(=O)c(C(=O)O)cn4C)c(N3CCC4(CCN(C)C4)CC3)c12` [Example 1.231]: the IC50 is under 0.098 µM in data set [4], under 0.098 µM in data set [5] and 0.542 µM in data set [1]. Moreover, the half-maximal cytotoxic concentration (CC50) at 3 days in data set [3] amounted to 37200 nM.

Consider `CNc1cc(F)c(F)c2c1[nH]c1ncc(-c3cnc4c(c3)c(=O)c(C(=O)O)cn4C)c(N3CCC4(CCCN4C)C3)c12` (stereo not shown) [Example 1.239], for which the IC50 was under 0.098 µM in data set [4], under 0.098 µM in data set [5] and 0.104 µM in data set [1]. Moreover, the CC50 at 3 days in data set [3] was 32900 nM.

For the compound `CNc1cc(F)c(Cl)c2c1[nH]c1ncc(-c3cnc4c(c3)c(=O)c(C(=O)O)cn4C)c(N3CCOCC3)c12` [Example 1.269], the IC50 was under 0.098 µM in data set [4], under 0.098 µM in data set [5] and 0.088 µM in data set [1]. For the same compound, the half-maximal cytotoxic concentration (CC50) at 3 days in data set [3] was 40800 nM.
